# According to publication PMC8972088 (Bioorganic & medicinal chemistry, 2021):
# Columns and labels:
# GSK-3β [1] = target: T1, GSK-3β (Homo sapiens, UniProt P49841); assay: GSK-3β kinase assay in presence of reducing agents; conditions: inhibitor 10 μM; for effect of reducing agents on potency: 2 mM DTT, GSH or TCEP, 84 min
# GSK-3β [2] = target: T1, GSK-3β; assay: PhosphoSens real-time kinase assay, wild type GSK-3β; assay type: biochemical; conditions: for increase in potency with preincubation: 3-hour preincubation vs no preincubation
# GSK-3β [3] = target: T1, GSK-3β; assay: Jump dilution assay; assay type: biochemical; conditions: 3-hour pre-incubation with 50 nM GSK-3β, 100-fold dilution; 2 mM ATP
# GSK-3β C199A mutant = GSK-3β C199A mutant (Homo sapiens, UniProt P49841, C199A); assay: PhosphoSens kinase assay, GSK-3β C199A mutant; assay type: biochemical; conditions: C199A vs wild type GSK-3β
# [4] = Reaction of COB-187 with ethanethiol and tributylphosphine in THF; assay type: physicochemical; conditions: room temperature to reflux, HPLC and 1H-NMR
# KDR (VEGFR2) = KDR (VEGFR2) (Homo sapiens, UniProt P35968); assay: Kinase panel screen, Z'-LYTE; assay type: biochemical; conditions: read-out: Inhibition KDR (VEGFR2)
# MAPKAPK5 (PRAK) = target: T2, MAPKAPK5 (PRAK) (Homo sapiens, UniProt Q8IW41); assay: Kinase panel screen, Z'-LYTE; assay type: biochemical; conditions: read-out: Inhibition MAPKAPK5 (PRAK), 2 μM COB-187, ATP Km, ±SD n=2
# T2 sequence (Q8IW41 1-473): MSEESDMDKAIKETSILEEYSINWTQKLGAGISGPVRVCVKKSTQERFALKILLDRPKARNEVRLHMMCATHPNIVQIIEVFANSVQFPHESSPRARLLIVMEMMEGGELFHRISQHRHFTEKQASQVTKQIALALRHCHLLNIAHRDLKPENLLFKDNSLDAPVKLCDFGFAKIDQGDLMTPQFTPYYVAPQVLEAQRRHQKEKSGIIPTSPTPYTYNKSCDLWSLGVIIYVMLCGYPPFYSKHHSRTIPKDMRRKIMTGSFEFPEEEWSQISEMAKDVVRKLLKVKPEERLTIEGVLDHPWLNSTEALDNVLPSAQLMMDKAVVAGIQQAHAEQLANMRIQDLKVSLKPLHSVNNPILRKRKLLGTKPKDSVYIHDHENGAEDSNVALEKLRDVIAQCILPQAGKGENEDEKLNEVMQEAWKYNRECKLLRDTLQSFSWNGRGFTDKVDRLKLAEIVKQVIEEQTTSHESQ
# T1 sequence (P49841 whole entry): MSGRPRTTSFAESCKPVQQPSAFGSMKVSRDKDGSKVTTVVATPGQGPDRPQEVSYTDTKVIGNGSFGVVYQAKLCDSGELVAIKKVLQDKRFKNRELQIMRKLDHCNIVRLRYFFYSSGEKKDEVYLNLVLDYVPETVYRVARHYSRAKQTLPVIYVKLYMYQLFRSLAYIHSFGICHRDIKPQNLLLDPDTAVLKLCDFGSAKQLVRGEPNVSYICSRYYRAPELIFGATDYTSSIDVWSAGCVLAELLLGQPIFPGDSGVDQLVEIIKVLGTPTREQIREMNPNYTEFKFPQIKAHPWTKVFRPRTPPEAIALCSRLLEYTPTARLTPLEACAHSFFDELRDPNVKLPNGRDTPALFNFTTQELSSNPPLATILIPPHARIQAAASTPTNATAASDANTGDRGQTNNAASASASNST
# Sequence of GSK-3β C199A mutant (P49841 whole entry C199A): as the sequence (P49841 whole entry) above, with C199A counted along it
# Sequence of KDR (VEGFR2) (P35968 20-1356): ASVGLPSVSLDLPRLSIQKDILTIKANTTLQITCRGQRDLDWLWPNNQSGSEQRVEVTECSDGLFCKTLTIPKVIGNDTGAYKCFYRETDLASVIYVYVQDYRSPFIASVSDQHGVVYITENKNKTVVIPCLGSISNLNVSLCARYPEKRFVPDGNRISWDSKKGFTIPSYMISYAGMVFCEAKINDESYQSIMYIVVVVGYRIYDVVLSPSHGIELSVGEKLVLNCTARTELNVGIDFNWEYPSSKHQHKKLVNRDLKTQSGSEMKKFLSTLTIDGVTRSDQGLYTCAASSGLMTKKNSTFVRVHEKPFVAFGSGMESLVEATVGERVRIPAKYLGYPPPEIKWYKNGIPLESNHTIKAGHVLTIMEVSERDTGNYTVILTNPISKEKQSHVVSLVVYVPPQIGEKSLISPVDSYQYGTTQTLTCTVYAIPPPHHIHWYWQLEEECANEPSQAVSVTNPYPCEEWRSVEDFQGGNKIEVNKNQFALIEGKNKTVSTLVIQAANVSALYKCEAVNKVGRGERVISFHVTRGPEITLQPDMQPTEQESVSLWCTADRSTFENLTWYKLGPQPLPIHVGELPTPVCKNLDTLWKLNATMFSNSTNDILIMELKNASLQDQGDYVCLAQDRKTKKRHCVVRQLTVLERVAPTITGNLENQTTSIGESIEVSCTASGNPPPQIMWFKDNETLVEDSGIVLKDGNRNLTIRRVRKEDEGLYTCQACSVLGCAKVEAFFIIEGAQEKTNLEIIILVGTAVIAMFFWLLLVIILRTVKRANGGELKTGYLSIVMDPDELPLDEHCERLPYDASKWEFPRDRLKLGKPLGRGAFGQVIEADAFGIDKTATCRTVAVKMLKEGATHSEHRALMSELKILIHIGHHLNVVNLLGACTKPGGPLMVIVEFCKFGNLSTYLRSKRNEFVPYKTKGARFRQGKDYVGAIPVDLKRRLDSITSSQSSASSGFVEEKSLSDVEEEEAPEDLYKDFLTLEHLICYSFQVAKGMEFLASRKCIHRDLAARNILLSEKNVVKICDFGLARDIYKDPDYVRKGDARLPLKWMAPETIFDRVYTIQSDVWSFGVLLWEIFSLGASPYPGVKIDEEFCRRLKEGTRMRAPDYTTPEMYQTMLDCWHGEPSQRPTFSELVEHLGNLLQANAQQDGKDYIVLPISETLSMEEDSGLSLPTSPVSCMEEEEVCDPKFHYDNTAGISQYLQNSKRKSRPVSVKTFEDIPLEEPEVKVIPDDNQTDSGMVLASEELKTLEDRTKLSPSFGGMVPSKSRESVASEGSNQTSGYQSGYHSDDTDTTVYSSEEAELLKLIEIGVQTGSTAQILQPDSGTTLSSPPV
effect of DTT or GSH on potency (GSK-3β [1]; 2 mM DTT or GSH),effect of TCEP on potency (GSK-3β [1]; 2 mM TCEP),increase in potency with preincubation (GSK-3β [2]),"average k4 from fit of kobs vs concentration to Eq. 8 (induced-fit) (GSK-3β [2]; average of five replicates, ± SD)",decrease in potency for the mutant versus wild type (GSK-3β C199A mutant),reaction with ethanethiol and tributylphosphine [4],inhibition at 2 µM (KDR (VEGFR2)),inhibition at 2 µM (MAPKAPK5 (PRAK)),SMILES,recovery of GSK-3β activity upon jump dilution (GSK-3β [3]),effect of reducing agents on potency (GSK-3β [1])
not significantly altered,significant but modest reduction,–,–,–,–,–,–,COc1ccc(CNC(=O)Nc2ncc([N+](=O)[O-])s2)cc1 [AR-A014418],–,–
–,–,no significant increase,–,–,–,–,–,O=C1Cc2c([nH]c3ccc([N+](=O)[O-])cc23)-c2ccccc2N1 [Alsterpaullone],recovered most of its activity upon dilution,–
–,–,< 4 fold,2.9 × 10^−4 (±4.8 × 10^−4 SD) 1/min,> 300 fold,no evidence of any reaction,8 ± 8.2%,~64%,"OC1(c2ccccc2)CSC(=S)N1Cc1ccncc1 (centres unmarked) [COB-187, 4-hydroxy-4-phenyl-3-(pyridin-4-ylmethyl)thiazolidine-2-thione]",–,significantly diminished

SMILES,effect of DTT or GSH on potency (GSK-3β [1]; 2 mM DTT or GSH),effect of TCEP on potency (GSK-3β [1]; 2 mM TCEP),increase in potency with preincubation (GSK-3β [2]),"average k4 from fit of kobs vs concentration to Eq. 8 (induced-fit) (GSK-3β [2]; average of five replicates, ± SD)",decrease in potency for the mutant versus wild type (GSK-3β C199A mutant),reaction with ethanethiol and tributylphosphine [4],inhibition at 2 µM (KDR (VEGFR2)),inhibition at 2 µM (MAPKAPK5 (PRAK)),recovery of GSK-3β activity upon jump dilution (GSK-3β [3]),effect of reducing agents on potency (GSK-3β [1])
COc1cc(O)c2c(c1)[C@H]1O[C@@H]1C[C@H](O)[C@H](O)C(=O)/C=C\C[C@H](C)OC2=O [Hypothemycin],–,–,~ 17 fold,–,–,–,–,–,did not recover activity upon jump dilution,significantly diminished
